From PubChem BioAssay AID814 (SRMLSC, 2007) come the findings set out here.

Molecules are shown by their SMILES. Activity calls are given as the source filed them. How the calls were made is not given here.

The assay concerns cell imaging, HER kinase expression, mean fluorescence. The assay can be described thus: HER kinase expression suppression, imaging readout – mean fluorescence, total cell number, dose response (AID 814).
The mark [1] stands for this setting: measured here: total cell number (cytotoxicity).

With `O=S1(=O)C=C(Sc2nc3ccccc3s2)c2ccccc21`, the EC50 is 5.41 µM. This compound also showed an EC50 under setting [1] of 7.61 µM.

In the case of `O=S1(=O)C=C(Sc2nc3cc(Cl)ccc3o2)c2ccccc21`, the EC50 is > 10 µM (inactive). The compound further returned an EC50 under setting [1] of more than 10 µM.

In the case of `O=S1(=O)C=C(Sc2nnc(-c3ccccc3)o2)c2ccccc21`, the EC50 was 8.72 µM. The compound also had an EC50 under setting [1] of more than 10 µM.

For `CCCn1c(NC(=O)c2ccco2)nc2ccccc21`, the EC50 is 9.35 µM. Also, under setting [1], the EC50 was more than 10 µM.

Take `Cn1c(C(C#N)C(=O)c2ccco2)nc2ccccc21` (stereo not drawn): the EC50 is 8.31 µM. The EC50 under setting [1] is more than 10 µM.

For the compound `COc1ccc(C(=O)C(CN2CCCC2)c2ccccc2)cc1` (stereo not drawn), the EC50 was 8.27 µM. This compound also had an EC50 under setting [1] of more than 10 µM.

Take `Cc1ccc(-c2csc3ncnc(Sc4nnc(CN5CCCCCC5=O)o4)c23)cc1`: the 50% effective concentration (EC50) was 8.06 µM. Besides, the EC50 under setting [1] was more than 10 µM.

Regarding `O=S(=O)(C/C(=C/CO)S(=O)(=O)c1ccccc1)c1ccccc1`, the EC50 is > 10 µM (inactive). This compound also showed a concentration giving a half-maximal response (EC50) under setting [1] of more than 10 µM.

`CC(=O)c1sc2nc(-c3cccs3)cc(C(F)(F)F)c2c1N`: the EC50 was > 10 µM (inactive). The EC50 under setting [1] is more than 10 µM.

For the compound `COC(=O)c1sccc1NC(=O)c1ccc(Cl)s1`, the half-maximal effective concentration (EC50) was 6.49 µM. The concentration for a half-maximal effect (EC50) under setting [1] was more than 10 µM.

Take `CS(=O)(=O)c1nc(-c2ccccc2)cc(C(F)(F)F)n1`: the EC50 was > 10 µM (inactive). The EC50 under setting [1] is more than 10 µM.

`CSC1=N/C(=C\C=C\c2cccs2)C(=O)S1`: the EC50 is > 10 µM (inactive). Further, under setting [1], the EC50 was more than 10 µM.

Consider `O=C(CSc1nc2cc(Cl)ccc2s1)c1ccco1`, for which the EC50 is > 10 µM (inactive). The EC50 under setting [1] was more than 10 µM.

`CN(C)CC(C(=O)c1ccccc1)c1ccccc1` (stereo not drawn): the EC50 is 6.95 µM. Under setting [1], this compound showed an EC50 of more than 10 µM.

As for `Nc1nnnn1/N=C/C(Br)=C/c1ccccc1`, the EC50 was 4.69 µM. Under setting [1], this compound returned a concentration giving a half-maximal response (EC50) of more than 10 µM.

Regarding `Cc1nc2nc(-c3ccco3)nn2c(C)c1Cl`, the EC50 was 9.52 µM. This compound also returned a 50% effective concentration (EC50) under setting [1] of more than 10 µM.

On to `Cc1nc(NC(=O)c2ccco2)sc1C(=O)Nc1ccc(Br)cc1`, for which the EC50 was 8.41 µM. Under setting [1], the concentration giving a half-maximal response (EC50) is more than 10 µM.

As for `CCCCS(=O)(=O)/C=C\C=C/S(=O)(=O)CCCC`, the EC50 was 8.14 µM. In addition, the EC50 under setting [1] was determined as 7.52 µM.

With `CCN1/C(=C/C(=O)c2ccco2)Sc2ccccc21`, the EC50 is 8.32 µM. The EC50 under setting [1] is more than 10 µM.

For the compound `Cc1ccc(CNC(=O)c2cc3c(-c4ccc(Cl)cc4)nn(C)c3s2)o1`, the EC50 was > 10 µM (inactive). The compound further returned an EC50 under setting [1] of more than 10 µM.

As for `O=S(=O)(CC(CN1CCCC1)N1CCCC1)c1ccc2ccccc2c1` (stereo not drawn), the half-maximal effective concentration (EC50) was 7.75 µM. Under setting [1], this compound returned an EC50 of more than 10 µM.

Take `CS(=O)(=O)c1nc(-c2ccco2)cc(C(F)(F)F)n1`: the EC50 was > 10 µM (inactive). Further, the 50% effective concentration (EC50) under setting [1] was more than 10 µM.

On to `CS(=O)(=O)c1nc(-c2cccs2)cc(C(F)(F)F)n1`, for which the EC50 was > 10 µM (inactive). In addition, the EC50 under setting [1] is more than 10 µM.

Turning to `Cc1nn2c(-c3ccco3)nnc2c2ccccc12`, the EC50 is 8.3 µM. The compound further returned an EC50 under setting [1] of more than 10 µM.
